In patent US20120149660A1, “NOVEL N-SUBSTITUTED 5-HYDROXYPYROLLINDES AS INHIBITORS OF MDM2-P53 INTERACTIONS” (priority 2010, published 2012):
Where a name gives a salt, the structure may show the parent alone.

Target: interaction between p53 and MDM2 proteins (recombinant GST-tagged MDM2 / biotinylated p53 peptide) (Homo sapiens, UniProt Q00987)
Experiment: HTRF (homogeneous time-resolved fluorescence) assay of p53-MDM2 interaction inhibition
Type: binding
Details: bsa: 0.02%
Method: The ability of the compounds to inhibit the interaction between p53 and MDM2 proteins was measured by an HTRF (homogeneous time-resolved fluorescence) assay in which recombinant GST-tagged MDM2 binds to a peptide that resembles the MDM2-interacting region of p53. Binding of GST-MDM2 protein and p53-peptide (biotinylated on its N-terminal end) is registered by the FRET (fluorescence resonance energy transfer) between Europium (Eu)-labeled anti-GST antibody and streptavidin-conjugated Allophycocyanin (APC).
[…] Add 10 uL diluted compounds (1:5 dilution in reaction buffer) to each well, mix by shaking Add 20 uL biotinylated p53 peptide (180 nM working solution) in reaction buffer to each well and mix on shaker. Incubate at 37° C. for 1 h. Add 20 uL streptavidin-APC and Eu-anti-GST antibody mixture (6 nM Eu-anti-GST and 60 nM streptavidin-APC working solution) in TBS buffer with 0.2% BSA, shake at room temperature for 30 minutes and read using a TRF-capable plate reader at 665 and 615 nm (Victor 5; Perkin Elmer Wallac). If not specified, the reagents were purchased from Sigma Chemical Co.

interaction between p53 and MDM2 proteins (recombinant GST-tagged MDM2 / biotinylated p53 peptide), sequence (Q00987 whole entry): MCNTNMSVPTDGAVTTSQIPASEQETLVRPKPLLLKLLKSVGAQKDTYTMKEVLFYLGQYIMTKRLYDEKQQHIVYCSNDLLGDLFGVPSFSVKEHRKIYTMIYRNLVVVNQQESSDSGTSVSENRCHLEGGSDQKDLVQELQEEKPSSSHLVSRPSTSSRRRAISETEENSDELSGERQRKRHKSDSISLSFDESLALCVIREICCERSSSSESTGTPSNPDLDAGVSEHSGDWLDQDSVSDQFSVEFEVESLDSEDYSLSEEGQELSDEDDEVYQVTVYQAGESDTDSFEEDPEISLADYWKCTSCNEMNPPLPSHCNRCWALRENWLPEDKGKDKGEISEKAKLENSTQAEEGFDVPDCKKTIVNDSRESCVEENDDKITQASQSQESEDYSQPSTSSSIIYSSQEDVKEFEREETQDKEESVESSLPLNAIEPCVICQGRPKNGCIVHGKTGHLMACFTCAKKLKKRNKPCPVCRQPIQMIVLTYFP

Molecule | IC50
CC(C)(C)C[C@@H]1N[C@@H](CO)[C@H](c2cccc(Cl)c2)[C@@]1(C#N)c1ccc(Cl)cc1 (racemic) [Example 1, rac(2S,3R,4R,5R)-4-(3-chloro-phenyl)-3-(4-chloro-phenyl)-2-(2,2-dimethyl-propyl)-5-hydroxymethyl-pyrrolidine-3-carbonitrile] | 2860 nM
CC(C)(C)C[C@@H]1N[C@@H](CO)[C@H](c2cccc(Cl)c2F)[C@@]1(C#N)c1ccc(Cl)cc1F (racemic) [Example 3, rac(2S,3R,4S,5R)-4-(3-chloro-2-fluoro-phenyl)-3-(4-chloro-2-fluoro-phenyl)-2-(2,2-dimethyl-propyl)-5-hydroxymethyl-pyrrolidine-3-carbonitrile] | 971 nM
CC(C)(C)C[C@@H]1N(CC[C@@H](O)[C@H](O)[C@H](O)CO)[C@@H](CO)[C@H](c2cccc(Cl)c2F)[C@@]1(C#N)c1ccc(Cl)cc1F (racemic) [Example 4, rac(2S,3R,4S,5R)-4-(3-chloro-2-fluoro-phenyl)-3-(4-chloro-2-fluoro-phenyl)-2-(2,2-dimethyl-propyl)-5-hydroxymethyl-1-((3R,4S,5R)-3,4,5,6-tetrahydroxy-hexyl)-pyrrolidine-3-carbonitrile] | 164 nM
CC(C)(C)C[C@@H]1N(CCCc2ccc(C(N)=O)cc2)[C@@H](CO)[C@H](c2cccc(Cl)c2F)[C@@]1(C#N)c1ccc(Cl)cc1F [Example 12, 4-{3-[(2S,3R,4S,5R)-4-(3-chloro-2-fluoro-phenyl)-3-(4-chloro-2-fluoro-phenyl)-3-cyano-2-(2,2-dimethyl-propyl)-5-hydroxymethyl-pyrrolidin-1-yl]-propyl}-benzamide trifluoroacetate salt] | 1520 nM
Cc1ccc(CCCN2[C@@H](CC(C)(C)C)[C@](C#N)(c3ccc(Cl)cc3F)[C@@H](c3cccc(Cl)c3F)[C@@H]2CO)o1 [Example 13, (2S,3R,4S,5R)-4-(3-chloro-2-fluoro-phenyl)-3-(4-chloro-2-fluoro-phenyl)-2-(2,2-dimethyl-propyl)-5-hydroxymethyl-1-[3-(5-methyl-furan-2-yl)-propyl]-pyrrolidine-3-carbonitrile trifluoroacetate salt] | 1670 nM
COC(=O)c1ccc(C#CCN2[C@@H](CC(C)(C)C)[C@](C#N)(c3ccc(Cl)cc3F)[C@@H](c3cccc(Cl)c3F)[C@@H]2CO)cc1F [Example 15, 4-{3-[(2S,3R,4S,5R)-4-(3-chloro-2-fluoro-phenyl)-3-(4-chloro-2-fluoro-phenyl)-3-cyano-2-(2,2-dimethyl-propyl)-5-hydroxymethyl-pyrrolidin-1-yl]-prop-1-ynyl}-2-fluoro-benzoic acid methyl ester] | 887 nM
CC(C)(C)C[C@@H]1N(CCCc2cn(C(c3ccccc3)(c3ccccc3)c3ccccc3)cn2)[C@@H](CO)[C@H](c2cccc(Cl)c2F)[C@@]1(C#N)c1ccc(Cl)cc1F [Example 17, (2S,3R,4S,5R)-4-(3-chloro-2-fluoro-phenyl)-3-(4-chloro-2-fluoro-phenyl)-2-(2,2-dimethyl-propyl)-5-hydroxymethyl-1-[3-(1-trityl-1H-imidazol-4-yl)-propyl]-pyrrolidine-3-carbonitrile] | 215 nM
CC(C)(C)C[C@@H]1N(CC#Cc2ccc(C(=O)O)c(F)c2)[C@@H](CO)[C@H](c2cccc(Cl)c2F)[C@@]1(C#N)c1ccc(Cl)cc1F [Example 18, 4-{3-[(2S,3R,4S,5R)-4-(3-chloro-2-fluoro-phenyl)-3-(4-chloro-2-fluoro-phenyl)-3-cyano-2-(2,2-dimethyl-propyl)-5-hydroxymethyl-pyrrolidin-1-yl]-prop-1-ynyl}-2-fluoro-benzoic acid] | 70.8 nM

The remaining lines, values ahead:

IC50 | Molecule
740 nM | CC(C)(C)C[C@@H]1N(CC[C@@H](O)[C@H](O)[C@H](O)CO)[C@@H](CO)[C@H](c2cccc(Cl)c2)[C@@]1(C#N)c1ccc(Cl)cc1 (racemic) [Example 2, rac(2S,3R,4R,5R)-4-(3-chloro-phenyl)-3-(4-chloro-phenyl)-2-(2,2-dimethyl-propyl)-5-hydroxymethyl-1-((3R,4S,5R)-3,4,5,6-tetrahydroxy-hexyl)-pyrrolidine-3-carbonitrile]
212 nM | CC(C)(C)C[C@@H]1N(CCCc2ccc(C(=O)O)cc2)[C@@H](CO)[C@H](c2cccc(Cl)c2F)[C@@]1(C#N)c1ccc(Cl)cc1F [Example 5, 4-{3-[(2S,3R,4S,5R)-4-(3-chloro-2-fluoro-phenyl)-3-(4-chloro-2-fluoro-phenyl)-3-cyano-2-(2,2-dimethyl-propyl)-5-hydroxymethyl-pyrrolidin-1-yl]-propyl}-benzoic acid]
4130 nM | CCOC(=O)c1ccc(CCCN2[C@@H](CC(C)(C)C)[C@](C#N)(c3ccc(Cl)cc3F)[C@@H](c3cccc(Cl)c3F)[C@@H]2CO)cc1 [Example 6, 4-{3-[(2S,3R,4S,5R)-4-(3-chloro-2-fluoro-phenyl)-3-(4-chloro-2-fluoro-phenyl)-3-cyano-2-(2,2-dimethyl-propyl)-5-hydroxymethyl-pyrrolidin-1-yl]-propyl}-benzoic acid ethyl ester]
182 nM | CC(C)(C)C[C@@H]1N[C@@H](CO)[C@H](c2cccc(Cl)c2F)[C@@]1(C#N)c1ccc(Cl)cc1F [Example 7, (2S,3R,4S,5R)-4-(3-chloro-2-fluoro-phenyl)-3-(4-chloro-2-fluoro-phenyl)-2-(2,2-dimethyl-propyl)-5-hydroxymethyl-pyrrolidine-3-carbonitrile]
2320 nM | CCOC(=O)C1CC1CN1[C@@H](CC(C)(C)C)[C@](C#N)(c2ccc(Cl)cc2F)[C@@H](c2cccc(Cl)c2F)[C@@H]1CO (stereo partly drawn) [Example 8, 2-[(2S,3R,4S,5R)-4-(3-chloro-2-fluoro-phenyl)-3-(4-chloro-2-fluoro-phenyl)-3-cyano-2-(2,2-dimethyl-propyl)-5-hydroxymethyl-pyrrolidin-1-ylmethyl]-cyclopropanecarboxylic acid ethyl ester]
2110 nM | CC(C)(C)C[C@@H]1N(Cc2ccc(OCCO)cc2)[C@@H](CO)[C@H](c2cccc(Cl)c2F)[C@@]1(C#N)c1ccc(Cl)cc1F [Example 9, (2S,3R,4S,5R)-4-(3-chloro-2-fluoro-phenyl)-3-(4-chloro-2-fluoro-phenyl)-2-(2,2-dimethyl-propyl)-1-[4-(2-hydroxy-ethoxy)-benzyl]-5-hydroxymethyl-pyrrolidine-3-carbonitrile]
87 nM | CC(C)(C)C[C@@H]1N(C[C@@H]2C[C@H]2C(=O)O)[C@@H](CO)[C@H](c2cccc(Cl)c2F)[C@@]1(C#N)c1ccc(Cl)cc1F [Example 10a, (1R,2R)-2-[(2S,3R,4S,5R)-4-(3-chloro-2-fluoro-phenyl)-3-(4-chloro-2-fluoro-phenyl)-3-cyano-2-(2,2-dimethyl-propyl)-5-hydroxymethyl-pyrrolidin-1-ylmethyl]-cyclopropanecarboxylic acid]
1080 nM | CC(C)(C)C[C@@H]1N(CC#C[Si](C)(C)C)[C@@H](CO)[C@H](c2cccc(Cl)c2F)[C@@]1(C#N)c1ccc(Cl)cc1F [Example 11, (2S,3R,4S,5R)-4-(3-Chloro-2-fluoro-phenyl)-3-(4-chloro-2-fluoro-phenyl)-2-(2,2-dimethyl-propyl)-5-hydroxymethyl-1-(3-trimethylsilanyl-prop-2-ynyl)-pyrrolidine-3-carbonitrile]
2360 nM | C#CCN1[C@@H](CC(C)(C)C)[C@](C#N)(c2ccc(Cl)cc2F)[C@@H](c2cccc(Cl)c2F)[C@@H]1CO [Example 14, (2S,3R,4S,5R)-4-(3-chloro-2-fluoro-phenyl)-3-(4-chloro-2-fluoro-phenyl)-2-(2,2-dimethyl-propyl)-5-hydroxymethyl-1-prop-2-ynyl-pyrrolidine-3-carbonitrile]
489 nM | CC(C)(C)C[C@@H]1N(CCCC2CCOCC2)[C@@H](CO)[C@H](c2cccc(Cl)c2F)[C@@]1(C#N)c1ccc(Cl)cc1F [Example 16, (2S,3R,4S,5R)-4-(3-chloro-2-fluoro-phenyl)-3-(4-chloro-2-fluoro-phenyl)-2-(2,2-dimethyl-propyl)-5-hydroxymethyl-1-[3-(tetrahydro-pyran-4-yl)-propyl]-pyrrolidine-3-carbonitrile]
242 nM | (1S,2S)-2-[(2S,3R,4S,5R)-4-(3-chloro-2-fluoro-phenyl)-3-(4-chloro-2-fluoro-phenyl)-3-cyano-2-(2,2-dimethyl-propyl)-5-hydroxymethyl-pyrrolidin-1-ylmethyl]-cyclopropanecarboxylic acid [Example 10b]
